# From patent US11214540B2, “Compositions for treating neurodegenerative diseases” (COGNITION THERAPEUTICS, INC., priority 2017, dated 2022)
# Like-named read-outs stand apart in the source and are kept apart here.
# Assays:
# [1] = system: Abeta oligomer-induced membrane trafficking deficits in primary hippocampal neurons; experiment: Membrane Trafficking/Exocytosis (MTT) assay, Abeta oligomer effect on neurons; assay type: cell-based, rat;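 for EC50 Abeta: compound potency for inhibiting the Abeta oligomer effect on exocytosis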
# Method: Compounds according to any embodiment described herein, were tested for their ability to inhibit an amyloid beta effect on the cells. The compounds generally were able to inhibit the amyloid beta effect as measured by a membrane trafficking/exocytosis assay (MTT assay). The rationale for this assay was as follows:
# The present exocytosis assay was adapted for use with mature primary neuronal cultures grown for 3 weeks in vitro. See WO 2011/106785, which is incorporated herein by reference in its entirety. Abeta oligomers cause a dose-dependent decrease in the amount of intracellular vesicles (puncta) filled with reduced purple formazan as measured via image processing using a Cellomics VTI automated microscopy system. […] Increasing the amount of Abeta oligomers eventually results in overt toxicity. Thus, the concentration of neuroactive Abeta oligomers used in the assay is much lower than that causing cell death. […] When configured in this manner, the assay is able to detect compounds that inhibit nonlethal effects of Abeta oligomer whether these compounds act via disruption of oligomers, inhibition of oligomer binding to neurons, or counteraction of signal transduction mechanisms of action initiated by oligomer binding.
# Primary hippocampal neurons from E18 Sprague-Dawley rat embryos were plated at optimized concentrations in 384 well plates in NB media (Invitrogen). Neurons were maintained in cultures for 3 weeks, with twice weekly feeding of NB media with N2 supplement (Invitrogen).
# A test compound was added to cells at concentrations ranging from 100 uM to 0.001 nM followed by addition of vehicle or Abeta oligomer preparations (3 μM total Abeta protein concentration), and incubated for 1 to 24 hr at 37° C. in 5% CO2. MTT reagent (3-(4,5-dimethylthizaol-2yl)-2,5diphenyl tetrazolium bromide) (Roche Molecular Biochemicals) was reconstituted in phosphate buffered saline to 5 mg/mL. 10 μL of MTT labeling reagent is added to each well and incubated at 37° C. for 1 h, then imaged. Exocytosis was assessed by automated microscopy and image processing to quantify the amount of endocytosed and exocytosed formazan.
# Each assay plate was formatted so that compounds are tested with and without Abeta oligomer on each plate. This design eliminates toxic or metabolically active compounds early on in the screening cascade (at the level of the primary screen). Reduced formazan was first visible in intracellular vesicles. Eventual formazan exocytosis was accelerated via Abeta oligomers.
# Human amyloid peptide 1-42 was obtained from a number of commercial vendors such as California Peptide, with lot-choice contingent upon quality control analysis. Quality controls of oligomer preparations consist of Westerns to determine oligomer size ranges and relative concentrations, and the MTT assay to confirm exocytosis acceleration without toxicity. Toxicity was monitored in each image-based assay via quantification of nuclear morphology visualized with the DNA binding blue dye DAPI (Invitrogen). Nuclei that are fragmented are considered to be in late stage apoptosis (Majno and Joris '95) and the test would be rejected. Peptide lots producing unusual peptide size ranges or significant toxicity at a standard 1.5 μM concentration on neurons would also be rejected.
# Data handling and analysis were accomplished by Cellomics VTI image analysis software and STORE automated database software. Because of the low dynamic range and neuronal well-to-well variability after three weeks in culture, statistical comparisons are made via pairwise Tukey-Kramer analysis to determine the significance of the separation between compound+Abeta oligomers from Abeta alone, and between compound alone from vehicle. The ability of mature primary neurons to more closely approximate the electrophysiologically mediated signal transduction network of the adult brain justifies this screening strategy. […]
# log P = assay type: physicochemical
# From the text: The term “log P” refers to the partition coefficient of a compound. The partition coefficient is the ratio of concentrations of un-ionized compound in each of two solution phases, for example, octanol and water. To measure the partition coefficient of ionizable solute compounds, the pH of the aqueous phase is adjusted such that the predominant form of the compound is un-ionized. The logarithm of the ratio of concentrations of the un-ionized solute compound in the solvents is called log P. The log P is a measure of lipophilicity. For example, log Poct/wat=log([solute]octanol/[solute]un-ionized,water).
# Combined Results for particular compounds described herein, with respect to log P, membrane trafficking (uM), sigma-2 receptor affinity, sigma-1 receptor affinity microsomal stability in mouse liver microsomes (MLM) (t1/2, min), t1/2 normalized to CT)10914 and in vitro toxicity potassium channel hERG (IC50, nM) are provided in Table 1: […]
# [2] = membrane trafficking, read-out: EC50 Abeta
log P (log P),Molecule,"EC50 [1, 2] [µM]",further results
4.69,CC(C)=CC(CC(C)(C)c1ccc(N2CCOCC2)cc1)N1CCC(CCO)CC1 (centres unmarked) [Compound 144],20,
4.76,COC1CCN(C(C=C(C)C)CC(C)(C)c2ccc(F)cc2)CC1 (centres unmarked) [Compound 145],20,
6.14,CC(C)=CC(CC(C)(C)c1ccc(Cl)cc1)N1CCC(N2CCCCC2)CC1 (centres unmarked) [Compound 146],0.025,
5.59,CC(C)=CC(CC(C)(C)c1ccc(N2CCOCC2)cc1)N1CCC(C2CCOCC2)CC1 (centres unmarked) [Compound 149],20,
3.86,CC(C)=CC(CC(C)(C)c1ccc(N2CCOCC2)cc1)N1CCC(O)CC1 (centres unmarked) [Compound 150],20,
4.65,CC(C)=CC(CC(C)(C)c1ccc(F)cc1)N1CCN(C(=O)C2CC2)CC1 (centres unmarked) [Compound 151],20,
5.11,CC(C)=CC(CC(C)(C)c1ccc(Cl)cc1)N1CCN(C(=O)C2CC2)CC1 (centres unmarked) [Compound 152],0.26,
5.73,CC(C)=CC(CC(C)(C)c1ccc(F)cc1)N1CCN(C(=O)c2ccccc2)CC1 (centres unmarked) [Compound 153],0.5,
3.83,CC(C)=CC(CC(C)(C)c1ccc(Cl)cc1)N1CCN(S(C)(=O)=O)CC1 (centres unmarked) [Compound 156],0.34,
5.99,CC(C)=CC(CC(C)(C)c1ccc(Cl)cc1)N1CCC(OC(C)C)CC1 (centres unmarked) [Compound 158],2.88,
6.36,CC(C)=CC(CC(C)(C)c1ccc(F)cc1)N1CCC(CCOC(C)C)CC1 (centres unmarked) [Compound 159],10,
6.82,CC(C)=CC(CC(C)(C)c1ccc(Cl)cc1)N1CCC(CCOC(C)C)CC1 (centres unmarked) [Compound 160],15,
4.1,CC(C)=CC(CC(C)(C)c1ccc(C(F)(F)F)cc1)N1CCN(S(C)(=O)=O)CC1 (centres unmarked) [Compound 161],0.27,
6,COCCOCCC1CCN(C(C=C(C)C)CC(C)(C)c2ccc(Cl)cc2)CC1 (centres unmarked) [Compound 162],15,
5.54,COCCOCCC1CCN(C(C=C(C)C)CC(C)(C)c2ccc(F)cc2)CC1 (centres unmarked) [Compound 163],15,
6.91,CCCCC1(OC(=O)NC(C)C)CCN(C(C=C(C)C)CC(C)(C)c2ccc(F)cc2)CC1 (centres unmarked) [Compound 226],1.25,
4.67,COC[C@H]1CCCN1C(C)CC(C)(C)c1ccc(Cl)cc1 (some centres unmarked) [Compound 253],0.25,
5.01,COc1cc(CCC(C)(C)N2Cc3cccc(C(=O)N4CCN(C(=O)Oc5ccccc5)CC4)c3C2)ccc1O [Compound 256],15,
6.58,CC(C)=C[C@H](CC(C)(C)c1ccc(C(F)(F)F)cc1)N1CCC(C2CCOCC2)CC1 [Compound 261],0.73,
6.49,COCCCC1CCN([C@@H](C=C(C)C)CC(C)(C)c2ccc(Cl)cc2)CC1 [Compound 292],1.6,

# The remaining lines, values behind:
Molecule,log P (log P),"EC50 [1, 2] [µM]",further results
"COc1cc(CCC(C)NCc2ccc(C(F)(F)F)cc2)ccc1O (centres unmarked) [4-(3-(4-(trifluoromethyl)benzylamino)butyl)-2-methoxyphenol, reference compound]",,,"effect on membrane trafficking deficits induced by AD brain-derived Abeta oligomers ([1]; AD brain-derived Abeta oligomers): eliminates the membrane trafficking deficits; effect on trafficking when dosed in the absence of Abeta ([1]; substance alone, no Abeta oligomer): does not affect trafficking"
COc1ccc(C(C)(C)CC(C=C(C)C)N2CCC(C(C)C)CC2)cc1 (centres unmarked) [Compound 86],6.37,0.22,
CC(C)=CC(CC(C)(C)c1ccc(Cl)cc1)N1CCC(C(C)C)CC1 (centres unmarked) [Compound 87],7.13,20,
CC(C)=CC(CC(C)(C)c1ccc(Cl)cc1)N1CCC(c2ccnc(N(C)C)c2)CC1 (centres unmarked) [Compound 90],7.02,20,
CC(C)=CC(CCc1ccc(F)cc1)N1CCOCC1 (centres unmarked) [Compound 91],3.99,20,
CC(C)=CC(CCc1ccc(F)cc1)N1CCCCC1 (centres unmarked) [Compound 92],5.06,20,
COc1ccc(C(C)(C)CC(NCC2CCOCC2)c2ccccc2)cc1 (centres unmarked) [Compound 115],4.9,20,
CC(C)=CC(CC(C)(C)c1ccc(Cl)cc1)N1CCC(C(F)(F)F)CC1 (centres unmarked) [Compound 123],6.67,0.3,
CC(C)=CC(CC(C)(C)c1ccc(F)cc1)N1CCC(Oc2ccccc2)CC1 (centres unmarked) [Compound 124],6.45,0.2,
CC(C)=CC(CC(C)(C)c1ccc(F)cc1)N1CCC(N2CCCC2)CC1 (centres unmarked) [Compound 125],5.23,0.25,
CC(C)=CC(CC(C)(C)c1ccc(C(F)(F)F)cc1)N1CCC(Oc2ccccc2)CC1 (centres unmarked) [Compound 128],7.19,20,
CC(C)=CC(CC(C)(C)c1ccc(C(F)(F)F)cc1)N1CCC(N2CCCC2)CC1 (centres unmarked) [Compound 130],5.97,0.3,
CC(C)=CC(CC(C)(C)c1ccc(F)cc1)N1CCC(C)(C)CC1 (centres unmarked) [Compound 131],6.24,20,
CC(C)=CC(CC(C)(C)c1ccc(Cl)cc1)N1CCC(Oc2ccccc2)CC1 (centres unmarked) [Compound 132],6.91,20,
CC(C)=CC(CC(C)(C)c1ccc(F)cc1)N1CCC(N2CCCCC2)CC1 (centres unmarked) [Compound 133],5.68,2.2,
CC(C)=CC(CC(C)(C)c1ccc(F)cc1)N1CCC(F)CC1 (centres unmarked) [Compound 134],5.01,20,
CC(C)=CC(CC(C)(C)c1ccc(Cl)cc1)N1CCC(N2CCCC2)CC1 (centres unmarked) [Compound 135],5.69,20,
CC(C)=CC(CC(C)(C)c1ccc(C(F)(F)F)cc1)N1CCC(N2CCOCC2)CC1 (centres unmarked) [Compound 137],5.34,0.15,
CC(C)=CC(CC(C)(C)c1ccc(Cl)cc1)N1CCC(N2CCOCC2)CC1 (centres unmarked) [Compound 138],5.07,0.45,
COCCCC1CCN(C(C=C(C)C)CC(C)(C)c2ccc(F)cc2)CC1 (centres unmarked) [Compound 139],6.03,20,
COCCCC1CCN(C(C=C(C)C)CC(C)(C)c2ccc(N3CCOCC3)cc2)CC1 (centres unmarked) [Compound 140],5.78,20,
CC(C)=CC(CC(C)(C)c1ccc(C(F)(F)F)cc1)N1CCC(F)CC1 (centres unmarked) [Compound 141],5.74,1.6,
COC1CCN(C(C=C(C)C)CC(C)(C)c2ccc(Cl)cc2)CC1 (centres unmarked) [Compound 142],5.22,20,
CC(C)=CC(CC(C)(C)c1ccc(N2CCOCC2)cc1)N1CCC(C(F)(F)F)CC1 (centres unmarked) [Compound 143],5.96,20,
CC(CC(C)(C)c1ccc(Cl)cc1)N1CCC(O)C1 (centres unmarked) [Compound 255],,15,
CC(C)=C[C@@H](CC(C)(C)c1ccc(C(F)(F)F)cc1)N1CCC(C2CCOCC2)CC1 [Example 262],,,"logP (log P; octanol/water): 6.58; EC50 ([1]; Rattus norvegicus, Hippocampal neuron, membrane trafficking, read-out: EC50 Abeta): 1.85 µM"
"Synthetic Abeta oligomers: Abeta 1-42 oligomers made according to published methods, used as positive controls [reference compound]",,,"EC50 ([1]; Abeta oligomers dosed alone on neurons, read-out: EC50 in the membrane trafficking assay): 0.82 µM"
